Measured values reported in patent publication US20260167659A1, “STING AGONISTS” (LIGACHEM BIOSCIENCES INC., priority 2022, published 2026).

Tests used:
[1] = Normal cell cytotoxicity in PBMCs, CellTiter-Glo; assay type: cell-based; details: human, read-out: In vitro cell cytotoxicity in PBMCs CC50
Summary of the method: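 PBMCs at 8.0×10^4 cells/well in RPMI 1640 with 10% FBS were rested 24 h at 37 °C. Cells were then exposed to the STING agonists for 72 h. Viability was read by CellTiter-Glo luminescence and expressed as percentage cell death.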

Human THP-1 cells = test: THP-1 activation, CD86 and HLA-DR by flow cytometry; assay type: cell-based; details: THP-1, 5-fold serial dilution from 1 μM, 48 hours
Method: To test the effect of STING agonist compounds described herein in the activation of innate and adaptive immune cells, flow cytometry (FACS) was performed. Human THP-1 cells (Korean Cell Line Bank, #40202) and PBMCs were seeded at 1.2×10^5 cells per well in a round-bottomed 96-well plate in RPMI 1640 medium (Gibco, #22400097) supplemented with 10% heat-inactivated FBS and 1× Antibiotic-Antimycotic (Gibco, #15240062) and rested for 24 hours at 37° C. The cells were stimulated with the STING agonist compounds as described; For THP-1 stimulation, the cells were treated with the STING agonist compound (Compound 313) in a 5-fold serial dilution from 1 μM for 48 hours. The induction of cell surface activation markers, CD86 (co-stimulatory molecule) and HLA-DR (MHC-class II), was measured by flow cytometry. […] For flow cytometry analysis, the stimulated cells were centrifuged at 300 g for 5 minutes at 4° C., and then resuspended in FACS buffer (2% FBS, 2 mM EDTA in PBS). […] Subsequently, the cells were stained with fluorescence-conjugated antibodies against CD8, CD3, CD56, and CD69 for CD8 T and NK cells activation and against CD86 and MHC-II for THP-1 naïve cells activation for 40 minutes at 4° C. After washing three times with FACS buffer, the cells were resuspended in FACS buffer and analyzed by FACSlyric (BD bioscience). The data were analyzed with Flowjo 9.0 software (BD bioscience).

With `CCn1nc(C)cc1C(=O)Nc1nc2cc(C(N)=O)cc(OC/C=C/Cn3cc(NC(=O)OCc4ccc(O[C@@H]5O[C@H](C(=O)O)[C@@H](O)[C@H](O)[C@H]5O)c(C(=O)NCCOCCOCCN(C)C)c4)cn3)c2n1C/C=C/Cn1c(NC(=O)c2cc(C)nn2CC)nc2cc(C(N)=O)cc(OCCCC(=O)O)c21` [Compound 313] as the compound, how does the CC50 at 72 h [1] read?
Its CC50 at 72 h is 0.098 µM.

And the “co-stimulatory molecule CD86 on cell surface” value (Human THP-1 cells; FIG. 3A)?
The value was “Up-regulation”.

And the “MHC class II molecule HLA-DR on cell surface” value (Human THP-1 cells; FIG. 3B)?
The value was “Up-regulation”.
